IC50 and EC50 data for 18 compounds are collected here from patent publication US20230340011A1 (Asteroid Therapeutics, priority 2022, published 2023).

The target in one experiment is SREBP-2 (Homo sapiens (Human), UniProt Q12772). The experiment in a line: In vitro assay SREBP-2: PathHunter U2OS SREBP-2 Nuclear Translocation Cell Line, U18666A-stimulated. Format: cell-based. The note with it: PathHunter U2OS SREBP-2 nuclear translocation cells, U18666A 10 μM, overnight (16 hours).
The next experiment has as its target LXRβ (Homo sapiens (Human), UniProt P55055). The experiment in a line: In vitro assay LXRβ: PathHunter NHR CHO cells, LXRβ / Steroid Receptor Co-activator Peptide enzyme fragment complementation. Conditions: PathHunter NHR CHO cells, full-length human LXRβ and SRCP, chemiluminescent signal; read-out: LXRβ PPI. Format: cell-based. Put shortly:
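Co-activator recruitment measured by chemiluminescence after signal generation. The CHO line carries full-length human LXRβ tagged with ProLink and an SRCP–enzyme acceptor fusion in the nucleus; cells sat overnight at 37° C before testing, in charcoal-dextran filtered serum medium with 1% final vehicle.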

A value given as a limit tells only on which side of the number the result lay.

LXRβ, sequence (P55055 whole entry, the tested form may be a part): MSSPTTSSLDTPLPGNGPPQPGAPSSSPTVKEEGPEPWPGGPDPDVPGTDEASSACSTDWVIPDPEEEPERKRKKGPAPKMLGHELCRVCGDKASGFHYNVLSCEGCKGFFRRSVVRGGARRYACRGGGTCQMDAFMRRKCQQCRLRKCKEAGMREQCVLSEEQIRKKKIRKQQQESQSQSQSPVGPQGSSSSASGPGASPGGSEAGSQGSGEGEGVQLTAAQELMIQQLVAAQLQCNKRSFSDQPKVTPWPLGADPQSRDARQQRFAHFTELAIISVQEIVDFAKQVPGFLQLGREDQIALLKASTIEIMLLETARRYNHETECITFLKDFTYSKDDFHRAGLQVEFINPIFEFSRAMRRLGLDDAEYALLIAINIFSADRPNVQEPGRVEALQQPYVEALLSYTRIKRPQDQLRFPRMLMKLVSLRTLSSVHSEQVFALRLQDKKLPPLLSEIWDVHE

Compound `C[C@H](CCC(=O)N1CCN(C(=O)N2CCCC2)[C@@H](C)C1)[C@H]1CC[C@H]2[C@@H]3CC=C4C[C@@H](O)CC[C@]4(C)[C@H]3CC[C@]12C` [Example 654, (4R)-4-[(1R,3aS,3bS,7S,9aR,9bS,11aR)-7-hydroxy-9a,11a-dimethyl-1H,2H,3H,3aH,3bH,4H,6H,7H,8H,9H,9aH,9bH,10H,11H,11aH-cyclopenta[a]phenanthren-1-yl]-1-[(3 S)-3-methyl-4-(pyrrolidine-1-carbonyl)piperazin-1-yl]pentan-1-one] registered an IC50 against SREBP-2 of less than 250 nM. For the same compound, the EC50 at LXRβ was more than 10 µM.

For the compound `C[C@H](CCc1cnsc1)[C@H]1CC[C@H]2[C@@H]3CC=C4C[C@@H](O)CC[C@]4(C)[C@H]3CC[C@]12C` [Example 176, (3S,8S,9S,10R,13R,14S,17R)-17-((R)-4-(isothiazol-4-yl)butan-2-yl)-10,13-dimethyl-2,3,4,7,8,9,10,11,12,13,14,15,16,17-tetradecahydro-1H-cyclopenta[a]phenanthren-3-ol], the IC50 at SREBP-2 is 250 to 1000 nM. Also, the EC50 on LXRβ was more than 10 µM.

Turning to `C[C@H](CCC(=O)N1CCC[C@H](O)C1)[C@H]1CC[C@H]2[C@@H]3CC=C4C[C@@H](O)CC[C@]4(C)[C@H]3CC[C@]12C` [Example 103, (R)-4-((3S,8S,9S,10R,13R,14S,17R)-3-hydroxy-10,13-dimethyl-2,3,4,7,8,9,10,11,12,13,14,15,16,17-tetradecahydro-1H-cyclopenta[a]phenanthren-17-yl)-1-((S)-3-hydroxypiperidin-1-yl)pentan-1-one], the IC50 against SREBP-2 is less than 250 nM. Moreover, the EC50 at LXRβ was in the range of 0.25 to 1 µM.

At SREBP-2, `CCC1(O)CC2(CN(C(=O)CC[C@@H](C)[C@H]3CC[C@H]4[C@@H]5CC=C6C[C@@H](O)CC[C@]6(C)[C@H]5CC[C@]34C)C2)C1` [Example 102, (R)-1-(6-ethyl-6-hydroxy-2-azaspiro[3.3]heptan-2-yl)-4-((3S,8S,9S,10R,13R,14S,17R)-3-hydroxy-10,13-dimethy12,3,4,7,8,9,10,11,12,13,14,15,16,17-tetradecahydro-1H-cyclopenta[a]phenanthren-17-yl)pentan-1-one] showed an IC50 of less than 250 nM. Also, the EC50 on LXRβ is more than 10 µM.

As for `C[C@H](CCC(=O)N1CC2(CC(O)C2)C1)[C@H]1CC[C@H]2[C@@H]3CC=C4C[C@@H](O)CC[C@]4(C)[C@H]3CC[C@]12C` [Example 100, (R)-4-((3S,8S,9S,10R,13R,14S,17R)-3-hydroxy-10,13-dimethyl-2,3,4,7,8,9,10,11,12,13,14,15,16,17-tetradecahydro-1H-cyclopenta[a]phenanthren-17-yl)-1-(6-hydroxy-2-azaspiro[3.3]heptan-2-yl)pentan-1-one], the IC50 at SREBP-2 is less than 250 nM. Also, at LXRβ, the EC50 is more than 10 µM.

Turning to `C[C@H](CCC(=O)N1CCN(C(=O)N2CCCC2)CC1)[C@H]1CC[C@H]2[C@@H]3CC=C4C[C@@H](O)CC[C@]4(C)[C@H]3CC[C@]12C` [Example 207, (R)-4-((3S,8S,9S,10R,13R,14S,17R)-3-hydroxy-10,13-dimethyl-2,3,4,7,8,9,10,11,12,13,14,15,16,17-tetradecahydro-1H-cyclopenta[a]phenanthren-17-yl)-1-(4-(pyrrolidine-1-carbonyl)piperazin-1-yl) pentan-1-one], the IC50 on SREBP-2 was less than 250 nM. Moreover, on LXRβ, the EC50 is more than 10 µM.

For the compound `C[C@H](CCC(=O)N1CCC(C)(NS(C)(=O)=O)CC1)[C@H]1CC[C@H]2[C@@H]3CC=C4C[C@@H](O)CC[C@]4(C)[C@H]3CC[C@]12C` [Example 84, N-(1-((R)-4-((3S,8S,9S,10R,13R,14S,17R)-3-hydroxy-10,13-dimethyl-2,3,4,7,8,9,10,11,12,13,14,15,16,17-tetradecahydro-1H-cyclopenta[a]phenanthren-17-yl)pentanoyl)-4-methylpiperidin-4-yl)methanesulfonamide], the IC50 on SREBP-2 is 250 to 1000 nM. Moreover, the EC50 at LXRβ was more than 10 µM.

In the case of `C[C@H](CCC(=O)N1CCN(C(=O)c2ccncn2)CC1)[C@H]1CC[C@H]2[C@@H]3CC=C4C[C@@H](O)CC[C@]4(C)[C@H]3CC[C@]12C` [Example 334, (R)-4-((3S,8S,9S,10R,13R,14S,17R)-3-hydroxy-10,13-dimethyl-2,3,4,7,8,9,10,11,12,13,14,15,16,17-tetradecahydro-1H-cyclopenta[a]phenanthren-17-yl)-1-(4-(pyrimidine-4-carbonyl)piperazin-1-yl)pentan-1-one], at SREBP-2, the IC50 is less than 250 nM. Further, the EC50 at LXRβ is more than 10 µM.

At SREBP-2, `COC(=O)N1CCN(C(=O)[C@@H](C)[C@H]2CC[C@H]3[C@@H]4CC=C5C[C@@H](O)CC[C@]5(C)[C@H]4CC[C@]23C)CC1` [Example 598, methyl 4-((S)-2-((3S,8S,9S,10R,13S,14S,17R)-3-hydroxy-10,13-dimethyl-2,3,4,7,8,9,10,11,12,13,14,15,16,17-tetradecahydro-1H-cyclopenta[a]phenanthren-17-yl)propanoyl)piperazine-1-carboxylate] returned an IC50 of 1000 to 10000 nM. Moreover, the EC50 at LXRβ is more than 10 µM.

The compound `[C-]#[N+]c1cccnc1CC[C@@H](C)[C@H]1CC[C@H]2[C@@H]3CC=C4C[C@@H](O)CC[C@]4(C)[C@H]3CC[C@]12C` [Example 638, (3S,8S,9S,10R,13R,14S,17R)-17-((R)-4-(3-isocyanopyridin-2-yl)butan-2-yl)-10,13-dim ethyl-2,3,4,7,8,9,10,11,12,13,14,15,16,17-tetradecahydro-1H-cyclopenta[a]phenanthren-3-ol] had an IC50 against SREBP-2 of less than 250 nM. For the same compound, at LXRβ, the EC50 lay within 0.25 to 1 µM.

As to `C[C@H](C(=O)NCc1ccncc1)[C@H]1CC[C@H]2[C@@H]3CC=C4C[C@@H](O)CC[C@]4(C)[C@H]3CC[C@]12C` [Example 599, (S)-2-((3S,8S,9S,10R,13S,14S,17R)-3-hydroxy-10,13-dimethyl-2,3,4,7,8,9,10,11,12,13,14,15,16,17-tetradecahydro-1H-cyclopenta[a]phenanthren-17-yl)-N-(pyridin-4-ylmethyl)propanamide], on SREBP-2, the IC50 fell in the range of 1000 to 10000 nM. Moreover, at LXRβ, the EC50 is more than 10 µM.

Turning to `C[C@H](CCC(=O)N1CCN(C)C(=O)C1)[C@H]1CC[C@H]2[C@@H]3CC=C4C[C@@H](O)CC[C@]4(C)[C@H]3CC[C@]12C` [Example 361, 4-[(4R)-4-[(1R,3aS,3bS,7S,9aR,9bS,11aR)-7-hydroxy-9a,11a-dimethyl-1H,2H,3H,3aH,3bH,4H,6H,7H,8H,9H,9aH,9bH,10H,11H,11aH-cyclopenta[a]phenanthren-1-yl]pentanoyl]-1-methylpiperazin-2-one], the IC50 against SREBP-2 is 250 to 1000 nM. In addition, at LXRβ, the EC50 is more than 10 µM.

On to `C[C@H](CCC(=O)N1CCN(C(=O)N2CC[C@@H]2C)CC1)[C@H]1CC[C@H]2[C@@H]3CC=C4C[C@@H](O)CC[C@]4(C)[C@H]3CC[C@]12C` [Example 665, (R)-4-((3S,8S,9S,10R,13R,14S,17R)-3-hydroxy-10,13-dimethyl-2,3,4,7,8,9,10,11,12,13,14,15,16,17-tetradecahydro-1H-cyclopenta[a]phenanthren-17-yl)-1-(4-((S)-2-methylazetidine-1-carbonyl)piperazin-1-yl)pentan-1-one], for which the IC50 against SREBP-2 is less than 250 nM. In addition, the EC50 at LXRβ was more than 10 µM.

Take `C[C@H](CCC(=O)N1CCC[C@H](c2ccccc2)C1)[C@H]1CC[C@H]2[C@@H]3CC=C4C[C@@H](O)CC[C@]4(C)[C@H]3CC[C@]12C` [Example 77, (R)-4-((3S,8S,9S,10R,13R,14S,17R)-3-hydroxy-10,13-dimethyl-2,3,4,7,8,9,10,11,12,13,14,15,16,17-tetradecahydro-1H-cyclopenta[a]phenanthren-17-yl)-1-((R)-3-phenylpiperidin-1-yl) pentan-1-one]: the IC50 at SREBP-2 is less than 250 nM. For the same compound, on LXRβ, the EC50 fell in the range of 1 to 10 µM.

`C[C@H](CCc1ncccn1)[C@H]1CC[C@H]2[C@@H]3CC=C4C[C@@H](O)CC[C@]4(C)[C@H]3CC[C@]12C` [Example 133, (1R,3aS,3bS,7S,9aR,9bS,11aR)-9a,11a-dimethyl-1-[(2R)-4-(pyrimidin-2-yl)butan-2-yl]-1H,2H,3H,3aH,3bH,4H,6H,7H,8H,9H,9aH,9bH,10H,11H,11aH-cyclopenta[a]phenanthren-7-ol]: on SREBP-2, the IC50 lay in the range of 250 to 1000 nM. Besides, the EC50 on LXRβ was 0.25 to 1 µM.

At SREBP-2, `Cc1cncc(N2CCN(C(=O)CC[C@@H](C)[C@H]3CC[C@H]4[C@@H]5CC=C6C[C@@H](O)CC[C@]6(C)[C@H]5CC[C@]34C)CC2)c1` [Example 661, (R)-4-((3S,8S,9S,10R,13R,14S,17R)-3-hydroxy-10,13-dimethyl-2,3,4,7,8,9,10,11,12,13,14,15,16,17-tetradecahydro-1H-cyclopenta[a]phenanthren-17-yl)-1-(4-(5-methylpyridin-3-yl)piperazin-1-yl)pentan-1-one] gave an IC50 of less than 250 nM. Also, at LXRβ, the EC50 is more than 10 µM.

Consider `C[C@H](CCC(=O)N1CCC[C@H]1C)[C@H]1CC[C@H]2[C@@H]3CC=C4C[C@@H](O)CC[C@]4(C)[C@H]3CC[C@]12C` [Example 113, (R)-4-((3S,8S,9S,10R,13R,14S,17R)-3-hydroxy-10,13-dimethyl-2,3,4,7,8,9,10,11,12,13,14,15,16,17-tetradecahydro-1H-cyclopenta[a]phenanthren-17-yl)-1-((R)-2-methylpyrrolidin-1-yl)pentan-1-one], for which the IC50 at SREBP-2 is less than 250 nM. On LXRβ, the EC50 was 0.25 to 1 µM.

Regarding `C[C@H](CCc1cc(F)ccn1)[C@H]1CC[C@H]2[C@@H]3CC=C4C[C@@H](O)CC[C@]4(C)[C@H]3CC[C@]12C` [Example 163, (3S,8S,9S,10R,13R,14S,17R)-17-((R)-4-(4-fluoropyridin-2-yl)butan-2-yl)-10,13-dimethyl-2,3,4,7,8,9,10,11,12,13,14,15,16,17-tetradecahydro-1H-cyclopenta[a]phenanthren-3-ol], on SREBP-2, the IC50 is less than 250 nM. Moreover, on LXRβ, the EC50 fell in the range of 1 to 10 µM.
